# According to patent publication US6737383B1, “Herbicidal oxadiazolidines” (priority 1999, dated 2004):
# Experiments:
# blackgrass = assay: Test B pre/postemergence blackgrass; type: in vivo, Alopecurus myosuroides
# Summary of the method: (§1)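 Herbicidal effect was estimated by eye on a ten-point control scale after plants spent twelve to sixteen days in a greenhouse following soil or foliar treatment. Foliar sprays targeted plants at one to four leaves; all doses were formulated in a non-phytotoxic solvent with surfactant.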
# cocklebur = assay: Test B pre/postemergence cocklebur; type: in vivo, Xanthium strumarium
# Summary of the method: as §1
# corn = assay: Test B pre/postemergence corn; type: in vivo, Zea mays
# Summary of the method: as §1
# crabgrass = assay: Test B pre/postemergence crabgrass; type: in vivo, Digitaria sanguinalis
# Summary of the method: as §1
# morningglory = assay: Test B pre/postemergence morningglory; type: in vivo, Ipomoea hederacea
# Summary of the method: as §1
# pigweed = assay: Test B pre/postemergence pigweed; type: in vivo, Amaranthus retroflexus
# Summary of the method: as §1
# rape = assay: Test B pre/postemergence rape; type: in vivo, Brassica napus
# Summary of the method: as §1
# sugar beet = assay: Test B pre/postemergence sugar beet; type: in vivo, Beta vulgaris
# Summary of the method: as §1
# velvetleaf = assay: Test B pre/postemergence velvetleaf; type: in vivo, Abutilon theophrasti
# Summary of the method: as §1
# wheat = assay: Test B pre/postemergence wheat; type: in vivo, Triticum aestivum
# Summary of the method: as §1
# wild oat = assay: Test B pre/postemergence wild oat; type: in vivo, Avena fatua
# Summary of the method: as §1
# purple nutsedge = assay: Test B pre/postemergence purple nutsedge; type: in vivo, Cyperus rotundus
# Summary of the method: as §1
# rice = assay: Test B flood test rice; type: in vivo, Oryza sativa; conditions: for Rice plant response rating: scale of 0 to 10 where 0 is no effect and 10 is complete control
# Summary of the method: (§2)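 Read-out is a visual response score from 0 (no effect) to 10 (complete control), assigned by comparison with untreated controls. Treatment was applied at the 2-leaf stage, and plants stayed in the greenhouse for twelve to sixteen days before scoring.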
# smallflower flatsedge = assay: Test B flood test smallflower flatsedge; type: in vivo, Cyperus difformis; conditions: for S. Flatsedge plant response rating: scale of 0 to 10 where 0 is no effect and 10 is complete control
# Summary of the method: as §2
# duck salad = assay: Test B flood test duck salad; type: in vivo, Heteranthera limosa; conditions: for Plant response rating, Ducksalad: scale 0 to 10, 0 is no effect, 10 is complete control; for Ducksalad plant response rating: scale of 0 to 10 where 0 is no effect and 10 is complete control
# Summary of the method: as §2
# bamyardgrass = assay: Test B flood test barnyardgrass; type: in vivo, Echinochloa crus-galli; conditions: for Plant response rating, Barnyardgrass: scale 0 to 10, 0 is no effect, 10 is complete control; for Barnyardgrass plant response rating: scale of 0 to 10 where 0 is no effect and 10 is complete control
# Summary of the method: as §2
# [1] = Postemergence, Rate 125 g/ha, scale 0 to 10, 0 is no effect, 10 is complete control
# [2] = Postemergence, Rate 250 g/ha, scale 0 to 10, 0 is no effect, 10 is complete control
# [3] = Postemergence, Rate 500 g/ha, scale of 0 to 10 where 0 is no effect and 10 is complete control
# [4] = Preemergence, Rate 62 g/ha, scale 0 to 10 (0 no effect, 10 complete control)
# [5] = Preemergence, Rate 125 g/ha, scale of 0 to 10 where 0 is no effect and 10 is complete control
# [6] = Preemergence, Rate 500 g/ha, scale 0 to 10, 0 is no effect, 10 is complete control
# [7] = Rate 62 g/ha, Postemergence, scale of 0 to 10 where 0 is no effect and 10 is complete control
# [8] = Preemergence, Rate 250 g/ha, scale 0 to 10, 0 is no effect, 10 is complete control
# [9] = Postemergence section (flood test species), Rate 500 g/ha
# [10] = Rate 62 g/ha, Postemergence (flood test species)
# [11] = flood test species, listed under Postemergence, Rate 250 g/ha, scale 0 to 10, 0 is no effect, 10 is complete control
# [12] = Postemergence (flood test), Rate 125 g/ha
# [13] = flood test species, listed under Postemergence, Rate 250 g/ha
smiles,measurement,setting,value
CC(=O)C(C)n1c(=O)on(C(=O)N(c2ccc(F)cc2)C(C)C)c1=O (stereo not drawn) [Compound 400],"Plant response rating, Blackgrass",blackgrass; [1],4
same,"Plant response rating, Blackgrass",blackgrass; [2],8
same,Blackgrass plant response rating,blackgrass; [3],8
same,"Plant response rating, Blackgrass",blackgrass; [4],0
same,"Plant response rating, Blackgrass",blackgrass; [5],0
same,Blackgrass plant response rating,"blackgrass; Preemergence, Rate 250 g/ha, scale of 0 to 10 where 0 is no effect and 10 is complete control",0
same,Blackgrass plant response rating,blackgrass; [6],0
same,Blackgrass plant response rating,blackgrass; [7],0
same,"Plant response rating, Cocklebur",cocklebur; [1],0
same,"Plant response rating, Cocklebur",cocklebur; [2],0
same,Cocklebur plant response rating,cocklebur; [3],0
same,"Plant response rating, Cocklebur",cocklebur; [4],0
same,"Plant response rating, Cocklebur",cocklebur; [5],0
same,Cocklebur plant response rating,cocklebur; [8],0
same,Cocklebur plant response rating,cocklebur; [6],0
same,Cocklebur plant response rating,cocklebur; [7],0
same,"Plant response rating, Corn",corn; [1],0
same,"Plant response rating, Corn",corn; [2],0
same,Corn plant response rating,corn; [3],0
same,"Plant response rating, Corn",corn; [4],0
same,"Plant response rating, Corn",corn; [5],0
same,Corn plant response rating,corn; [8],2
same,Corn plant response rating,corn; [6],2
same,Corn plant response rating,corn; [7],0
same,"Plant response rating, Crabgrass",crabgrass; [2],6
same,Crabgrass plant response rating,crabgrass; [3],9
same,"Plant response rating, Crabgrass",crabgrass; [4],6
same,"Plant response rating, Crabgrass",crabgrass; [5],9
same,Crabgrass plant response rating,crabgrass; [8],10
same,Crabgrass plant response rating,crabgrass; [6],10
same,Crabgrass plant response rating,crabgrass; [7],0
same,"Plant response rating, Morningglory",morningglory; [2],3
same,Morningglory plant response rating,morningglory; [3],6
same,"Plant response rating, Morningglory",morningglory; [4],0
same,"Plant response rating, Morningglory",morningglory; [5],0
same,Morningglory plant response rating,morningglory; [8],0
same,Morningglory plant response rating,morningglory; [6],0
same,Morningglory plant response rating,morningglory; [7],0
same,"Plant response rating, Redroot pigweed",pigweed; [2],0
same,Redroot pigweed plant response rating,pigweed; [3],0
same,"Plant response rating, Redroot pigweed",pigweed; [4],3
same,"Plant response rating, Redroot pigweed",pigweed; [5],4
same,Redroot pigweed plant response rating,pigweed; [8],6
same,Redroot pigweed plant response rating,pigweed; [6],6
same,Redroot pigweed plant response rating,pigweed; [7],0
same,"Plant response rating, Rape",rape; [2],0
same,Rape plant response rating,rape; [3],0
same,"Plant response rating, Rape",rape; [4],0
same,"Plant response rating, Rape",rape; [5],0
same,Rape plant response rating,rape; [8],0
same,Rape plant response rating,rape; [6],0
same,Rape plant response rating,rape; [7],0
same,"Plant response rating, Sugarbeets",sugar beet; [2],0
same,Sugarbeets plant response rating,sugar beet; [3],0
same,"Plant response rating, Sugarbeets",sugar beet; [4],0
same,"Plant response rating, Sugarbeets",sugar beet; [5],0
same,Sugarbeets plant response rating,sugar beet; [8],2
same,Sugarbeets plant response rating,sugar beet; [6],4
same,Sugarbeets plant response rating,sugar beet; [7],0
same,"Plant response rating, Velvetleaf",velvetleaf; [2],0
same,Velvetleaf plant response rating,velvetleaf; [3],0
same,"Plant response rating, Velvetleaf",velvetleaf; [4],0
same,"Plant response rating, Velvetleaf",velvetleaf; [5],0
same,Velvetleaf plant response rating,velvetleaf; [8],0
same,Velvetleaf plant response rating,velvetleaf; [6],2
same,Velvetleaf plant response rating,velvetleaf; [7],0
same,Wheat plant response rating,wheat; [3],0
same,"Plant response rating, Wheat",wheat; [4],0
same,"Plant response rating, Wheat",wheat; [5],0
same,Wheat plant response rating,wheat; [8],0
same,Wheat plant response rating,wheat; [6],0
same,Wheat plant response rating,wheat; [7],0
same,Wild oats plant response rating,wild oat; [3],0
same,"Plant response rating, Wild oats",wild oat; [4],0
same,"Plant response rating, Wild oats",wild oat; [5],0
same,Wild oats plant response rating,wild oat; [8],0
same,Wild oats plant response rating,wild oat; [6],0
same,Wild oats plant response rating,wild oat; [7],0
same,"Plant response rating, Nutsedge",purple nutsedge; [2],0
same,Nutsedge plant response rating,purple nutsedge; [3],0
same,"Plant response rating, Nutsedge",purple nutsedge; [4],0
same,"Plant response rating, Nutsedge",purple nutsedge; [5],0
same,Nutsedge plant response rating,purple nutsedge; [8],0
same,Nutsedge plant response rating,purple nutsedge; [6],0
same,Nutsedge plant response rating,purple nutsedge; [7],0
same,Rice plant response rating,rice; [9],0
same,Rice plant response rating,rice; [10],0
same,"Plant response rating, Rice",rice; [11],0
same,S. Flatsedge plant response rating,smallflower flatsedge; [9],0
same,S. Flatsedge plant response rating,smallflower flatsedge; [10],0
same,"Plant response rating, S. Flatsedge",smallflower flatsedge; [11],0
same,"Plant response rating, Ducksalad",duck salad; [12],0
same,Ducksalad plant response rating,duck salad; [9],0
same,Ducksalad plant response rating,duck salad; [10],0
same,"Plant response rating, Ducksalad",duck salad; [13],0
same,"Plant response rating, Barnyardgrass",bamyardgrass; [12],0
same,Barnyardgrass plant response rating,bamyardgrass; [9],0
same,Barnyardgrass plant response rating,bamyardgrass; [10],0
same,"Plant response rating, Barnyardgrass",bamyardgrass; [13],0
